Peptide text beside a SMILES is read from it. * marks the point of attachment. Dansyl = CN(C)c1cccc2c(S(=O)(=O)*)cccc12
Test system: P100 membrane fractions derived from Caco-2 cells
Assay: Dansylated peptide ELISA: relative binding of PAX2 and HAX42 peptides to P100 (ratio to ZElan021)
Settings: PAX2 peptides, ratio to ZElan021 = 1.00; for Binding value at 20 μg/ml: first 20 μg/ml column
Method: The peptides and proteins were analyzed by a dansylated peptide ELISA method in which 96 well plates were coated overnight at 4° C. with 100 μl/well coating protein (normally 100 μg/ml P100 membrane fraction) in 0.05M carbonate buffer pH9.6. Nonspecific binding was blocked using 200 μl/well, 2% Marvel/PBS for 2 hours at 37° C. prior to incubation with dansylated peptides. The plates were washed three times with PBS/0.05% Tween 20 and after each subsequent incubation step. […] A buffer blank control was included to ensure that background binding to plastic was not due to the antibodies used in the assay system. […] The plates were then incubated with an anti-mouse X-HRP conjugated antibody (Southern Biotech 1060-05) at a 1:10,000 dilution in blocking solution, 100 μl/well for 1 hour at room temperature. Plates were developed using 75 μl/well Bionostics TMB substrate and incubated for approximately 10 minutes. The developing reaction was stopped using Bionostics Red Stop solution (25 μl/well), and the optical density of the plates was read at 650nm.

Structure (SMILES): CC(C)C[C@H](NC(=O)[C@H](CCCNC(=N)N)NC(=O)[C@H](CCCNC(=N)N)NC(=O)[C@H](CC(N)=O)NC(=O)[C@H](Cc1c[nH]cn1)NC(=O)[C@H](CO)NC(=O)[C@H](C)NC(=O)[C@@H](N)CCCCNS(=O)(=O)c1cccc2c(N(C)C)cccc12)C(=O)N[C@@H](CCCNC(=N)N)C(=O)N[C@H](C(=O)N[C@@H](CCCNC(=N)N)C(N)=O)[C@@H](C)O [ZElan073] (H-K(Dansyl)ASHNRRLRTR-NH2)
- Binding value at 50 μg/ml (Jackson Ab): 0.66
- Binding value at 50 μg/ml (Southern Ab): 0.49
- Binding value at 20 μg/ml: 0.07
- Binding value at 50 μg/ml (first 50 μg/ml column): −0.11
- Binding value at 50 μg/ml (second 50 μg/ml column): 0.49

Structure (SMILES): CC(C)C[C@H](NC(=O)[C@H](CCCNC(=N)N)NC(=O)[C@H](CCCNC(=N)N)NC(=O)[C@H](CC(N)=O)NC(=O)[C@H](Cc1c[nH]cn1)NC(=O)[C@H](C)NC(=O)[C@H](CO)NC(=O)[C@@H](N)CCCCNS(=O)(=O)c1cccc2c(N(C)C)cccc12)C(=O)N[C@@H](CCCNC(=N)N)C(=O)N[C@H](C(=O)N[C@@H](CCCNC(=N)N)C(N)=O)[C@@H](C)O [ZElan074] (H-K(Dansyl)SAHNRRLRTR-NH2)
- Binding value at 50 μg/ml (Jackson Ab): 0.71
- Binding value at 50 μg/ml (Southern Ab): 0.48
- Binding value at 20 μg/ml: 0.06
- Binding value at 50 μg/ml (first 50 μg/ml column): 0.82
- Binding value at 50 μg/ml (second 50 μg/ml column): 0.52

Structure (SMILES): CC(C)C[C@H](NC(=O)[C@H](CCCNC(=N)N)NC(=O)[C@H](CCCNC(=N)N)NC(=O)[C@H](CC(N)=O)NC(=O)[C@H](C)NC(=O)[C@H](CO)NC(=O)[C@H](CO)NC(=O)[C@@H](N)CCCCNS(=O)(=O)c1cccc2c(N(C)C)cccc12)C(=O)N[C@@H](CCCNC(=N)N)C(=O)N[C@H](C(=O)N[C@@H](CCCNC(=N)N)C(N)=O)[C@@H](C)O [ZElan075] (H-K(Dansyl)SSANRRLRTR-NH2)
- Binding value at 50 μg/ml (Jackson Ab): 0.47
- Binding value at 50 μg/ml (Southern Ab): 0.32
- Binding value at 20 μg/ml: 0.13
- Binding value at 50 μg/ml (first 50 μg/ml column): 0.52
- Binding value at 50 μg/ml (second 50 μg/ml column): 0.38

Structure (SMILES): CC(C)C[C@H](NC(=O)[C@H](CCCNC(=N)N)NC(=O)[C@H](CCCNC(=N)N)NC(=O)[C@H](C)NC(=O)[C@H](Cc1c[nH]cn1)NC(=O)[C@H](CO)NC(=O)[C@H](CO)NC(=O)[C@@H](N)CCCCNS(=O)(=O)c1cccc2c(N(C)C)cccc12)C(=O)N[C@@H](CCCNC(=N)N)C(=O)N[C@H](C(=O)N[C@@H](CCCNC(=N)N)C(N)=O)[C@@H](C)O [ZElan076] (H-K(Dansyl)SSHARRLRTR-NH2)
- Binding value at 50 μg/ml (Jackson Ab): 0.60
- Binding value at 50 μg/ml (Southern Ab): 0.42
- Binding value at 20 μg/ml: 0.08
- Binding value at 50 μg/ml (first 50 μg/ml column): 1.00
- Binding value at 50 μg/ml (second 50 μg/ml column): 0.41

Structure (SMILES): CC(C)C[C@H](NC(=O)[C@H](CCCNC(=N)N)NC(=O)[C@H](C)NC(=O)[C@H](CC(N)=O)NC(=O)[C@H](Cc1c[nH]cn1)NC(=O)[C@H](CO)NC(=O)[C@H](CO)NC(=O)[C@@H](N)CCCCNS(=O)(=O)c1cccc2c(N(C)C)cccc12)C(=O)N[C@@H](CCCNC(=N)N)C(=O)N[C@H](C(=O)N[C@@H](CCCNC(=N)N)C(N)=O)[C@@H](C)O [ZElan077] (H-K(Dansyl)SSHNARLRTR-NH2)
- Binding value at 50 μg/ml (Jackson Ab): 0.73
- Binding value at 50 μg/ml (Southern Ab): 0.52
- Binding value at 20 μg/ml: 0.20
- Binding value at 50 μg/ml (first 50 μg/ml column): 0.76
- Binding value at 50 μg/ml (second 50 μg/ml column): 0.54

Structure (SMILES): CC(C)C[C@H](NC(=O)[C@H](C)NC(=O)[C@H](CCCNC(=N)N)NC(=O)[C@H](CC(N)=O)NC(=O)[C@H](Cc1c[nH]cn1)NC(=O)[C@H](CO)NC(=O)[C@H](CO)NC(=O)[C@@H](N)CCCCNS(=O)(=O)c1cccc2c(N(C)C)cccc12)C(=O)N[C@@H](CCCNC(=N)N)C(=O)N[C@H](C(=O)N[C@@H](CCCNC(=N)N)C(N)=O)[C@@H](C)O [ZElan078] (H-K(Dansyl)SSHNRALRTR-NH2)
- Binding value at 50 μg/ml (Jackson Ab): 0.68
- Binding value at 50 μg/ml (Southern Ab): 0.47
- Binding value at 20 μg/ml: 0.11
- Binding value at 50 μg/ml (first 50 μg/ml column): 0.87
- Binding value at 50 μg/ml (second 50 μg/ml column): 0.69
